Measurements taken from patent US20260226077A1, “TYPE II TOPOISOMERASE INHIBITORS AND METHODS OF MAKING AND USING THEREOF” (Ohio State Innovation Foundation, priority 2023, published 2026).
Converted amounts (≈) assume the structure as drawn. Marks after values point to notes of the source that are not given here.

Assays:
D83N = test: MIC against D83N mutant; format: cell-based
physchem = conditions: pH 7.4, aqueous buffer, kinetic from dmso stock, Kinetic solubility at pH 7.4-7.5 (μM)
in vitro [1] = conditions: mouse, hepatocytes
Bacillus anthracis = test: microbe, parasite or virus in culture; format: cell-based
In vitro micronucleus = format: cell-based
in vitro [2] = conditions: mouse, plasma
Dog microsomal stability = format: in vitro ADME; conditions: microsomes, read-out: Dog microsom. t1/2
Moraxella catarrhalis = test: MIC50/90 against Moraxella catarrhalis; format: cell-based; conditions: n = 10
Burkholderia mallei = test: microbe, parasite or virus in culture; format: cell-based
[3] = Monkey microsomal stability; format: in vitro ADME; conditions: microsomes, read-out: Monkey microsom. t1/2
[4] = 284: as free base in immunocompetent mice, 147: no footnote
[5] = as mesylate salt in neutropenic mice

COc1ccc2ncc(F)c(C[C@H](O)[C@H]3OC[C@H](NCc4cnc5c(n4)NC(=O)CO5)CO3)c2n1 [Compound 284, 6-(((2-((S)-2-(3-fluoro-6-methoxy-1,5-naphthyridin-4-yl)-1-hydroxyethyl)-trans-1,3-dioxan-5-yl)amino)methyl)-2H-pyrazino[2,3-b][1,4]oxazin-3(4H)-one]
MIC (D83N): 1 to 2 µg/mL (≈ 2.06 to 4.11 µM)
solubility kinetic (physchem): 118 µM (≈ 57.2 µg/mL)
half-life (in vitro [1]): > 4 h
Mouse plasma protein binding (% unbound): 31 % unbound
MIC50 (Bacillus anthracis; read-out: Bacillus anthracis MIC50 (μg/mL)): 0.06 µg/mL (≈ 0.123 µM)
MIC90 (Bacillus anthracis; read-out: Bacillus anthracis MIC90 (μg/mL)): 0.25 µg/mL (≈ 0.514 µM)
In vitro micronucleus (In vitro micronucleus): Pos. at high
half-life (in vitro [2]): > 2 h
half-life (Dog microsomal stability): > 2 h
MIC50 (Moraxella catarrhalis): 0.12 µg/mL (≈ 0.247 µM)
MIC90 (Moraxella catarrhalis): 0.25 µg/mL (≈ 0.514 µM)
MIC90 (Burkholderia mallei; Burkholderia mallei, read-out: Burkholderia mallei MIC90 (μg/mL)): > 64 µg/mL
Burkholderia mallei MIC50 (Burkholderia mallei; n = 10): 16 µg/mL
Mouse PK AUClast, unbound (μg*h/mL) after 50 mg/kg oral dose (Mouse pharmacokinetics; [4]): 5** μg*h/mL
Mouse PK AUClast, unbound (μg*h/mL) after 50 mg/kg oral dose (Mouse pharmacokinetics; [5]): 12*** μg*h/mL
Mouse Clunbound (mL/min/kg) (Mouse pharmacokinetics; [4]): 15*** mL/min/kg
Mouse Clunbound (mL/min/kg) (Mouse pharmacokinetics; [5]): 45**** mL/min/kg
half-life [3]: > 2 h
